Results: patent US11827628B2, “Compositions and methods for inhibition of the JAK pathway” (Rigel Pharmaceuticals, Inc., priority 2005, dated 2023)
Counter-ions that a name gives are not always drawn. Like-named read-outs stand apart in the source and are kept apart here. Values belong to the compound of their own block, whether it stands above or below them.

Key:
[1] = test system: IL-4 stimulated expression of CD23 in human Ramos B cells (JAK-1 and JAK-3); assay: Assay for Ramos B-Cell Line Stimulated with IL-4 (CD23 upregulation, FACS); format: cell-based; settings: read-out: IC50, Example 41
Procedure, shortened: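 Steps: Ramos B cells are suspended in RPMI with 5% serum, exposed to compound for 1 h at 37 °C, stimulated with IL-4 (final 50 units/mL) for 20-24 h, stained for CD23 and analysed by flow cytometry. IC50 is calculated.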

[2] = test system: up-regulation of ICAM-1 (CD54) by IFNγ in U937 human monocytic cells; assay: U937 IFNγ ICAM1 FACS Assay; format: cell-based; settings: U937 cells stimulated with IFNγ; ICAM-1 expression by FACS; read-out: IC50, Example 44
Procedure, shortened: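 Readout was the geometric-mean APC anti-ICAM-1 signal by FACS on live U937 monocytic cells, with % live cells also recorded. Cells were exposed to compounds (8 points, 3-fold dilutions, duplicates) for 30 min at 37 °C before 18–24 h of IFNγ stimulation. EC50 values were computed from the dose curve.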

[3] = Ramos B-cell line stimulated with IL-4, CD23 expression by FACS
[4] = Ramos B cells stimulated with IL-4, CD23 expression by FACS

- IC50 [1, 4]: 43.9 nM
- IC50 [2]: 477 nM
Compound: Cc1ccc(Nc2ncc(F)c(Nc3ccc4c(c3)NC(=O)CS4)n2)cc1S(N)(=O)=O [VII-45, N2-(3-Aminosulphonyl-4-methyl-phenyl)-5-fluoro-N4-(3-oxo-4H-benzo[1,4]thiazin-6-yl)-2,4-pyrimidinediamine]

- IC50 [1, 4]: 233 nM
- IC50 [2]: 6030 nM
Compound: CS(=O)(=O)N1CCc2cc(Nc3nc(Nc4ccc(S(N)(=O)=O)cc4)ncc3F)ccc21 [VII-63]

- IC50 [1, 4]: 194 nM
Compound: C#CCOc1ccc(Nc2nc(Nc3ccc(C)c(S(=O)(=O)NC4CCN(C)CC4)c3)ncc2F)cc1 [VI-69, 5-Fluoro-N2-{[4-methyl-3-((1-methylpiperidin-4-yl)aminosulfonyl)]phenyl} N4-[4-(prop-2-ynyloxy)phenyl]-2,4-pyrimidinediamine]

- IC50 [1, 4]: 84 nM
Compound: N#CCn1ccc2cc(Nc3nc(Nc4ccc(S(N)(=O)=O)cc4)ncc3F)ccc21 [IX-6, N2-(4-Aminosulfonylphenyl)-N4-(1-cyanomethyleneindol-5-yl)-5-fluoro-2,4-pyrimidinediamine]

- IC50 [1, 3]: 580 nM
Compound: Cc1ccc(Nc2nc(Nc3ccc(S(N)(=O)=O)cc3)ncc2F)cc1OCC(=O)N1CCOCC1 [Compound I-209, N2-(4-Aminosulfonylphenyl)-5-fluoro-N4-[4-methyl-3-(2-morpholinocarbonylmethyleneoxy)phenyl]-2,4-pyrimidinediamine]

- IC50 [1, 4]: 153 nM
- IC50 [2]: 10100 nM
Compound: COc1ccc(Nc2nc(Nc3cc(C)c4c(c3)S(=O)(=O)NC=N4)ncc2F)cc1Cl [VIII-3, N4-(3-Chloro-4-methoxyphenyl)-5-fluoro-N2-(5-methyl-2H-1,1-dioxo-1,2,4-benzothiadiazin-7-yl)-2,4-pyrimidinediamine]

- IC50 [1, 4]: 111 nM
- IC50 [2]: 849 nM
Compound: COCCCn1ncc2cc(Nc3nc(Nc4cccc(S(N)(=O)=O)c4)ncc3F)ccc21 [VII-22, N2-(3-Aminosulfonylphenyl)-5-fluoro-N4-[1-(3-methoxypropyl)indazolin-5-yl]-2,4-pyrimidinediamine]

- IC50 [1, 4]: 46.4 nM
- IC50 [2]: 543 nM
Compound: Cc1ccc(Nc2ncc(F)c(Nc3ccc4c(ccn4CC#N)c3)n2)cc1S(N)(=O)=O [IX-8, N2-(3-Aminosulfonyl-4-methylphenyl)-N4-(1-cyanomethyleneindol-5-yl)-5-fluoro-2,4-pyrimidinediamine]

- IC50 [1, 4]: 65 nM
- IC50 [2]: 570 nM
Compound: CS(=O)(=O)N1CCc2cc(Nc3nc(Nc4cccc(S(N)(=O)=O)c4)ncc3F)ccc21 [VII-60, N2-(3-Aminosulfonylphenyl)-5-fluoro-N4-[4-(1-methylsulfonyl)indolin-5-yl]-2,4-pyrimidinediamine]

- IC50 [1, 4]: 314 nM
- IC50 [2]: 3430 nM
Compound: COCCOc1ccc(Nc2nc(Nc3ccc(Cl)c(S(N)(=O)=O)c3)ncc2F)cc1 [VI-111, N2-(3-Aminosulfonyl-4-chlorophenyl)-5-fluoro-N4-[4-(2-methoxyethyleneoxy)phenyl]-2,4-pyrimdinediamine]

- IC50 [1, 4]: 36.7 nM
Compound: NC1CCOc2ccc(Nc3nc(Nc4cccc(S(N)(=O)=O)c4)ncc3F)cc21 (stereo not drawn) [VII-28, N2-(3-Aminosulfonylphenyl)-N4-(chroman-4-amine-6-yl)-5-fluoro-2,4-pyrimidinediamine]

- IC50 [1, 4]: 350 nM
- IC50 [2]: 5060 nM
Compound: CN1C(=O)CSc2ccc(Nc3nc(Nc4cccc(S(=O)(=O)N5CCCCC5)c4)ncc3F)cc21 [VII-50, 5-Fluoro-N4-(4-methyl-3-oxo-benz[1,4]thiazin-6-yl)-N2-(3-pipendinosulfonylphenyl)-2,4-pyrimidinediamine]

- IC50 [1, 4]: 140 nM
- IC50 [2]: 1290 nM
Compound: CCS(=O)(=O)N1CCc2cc(Nc3nc(Nc4ccc(S(N)(=O)=O)cc4)ncc3F)ccc2C1 [VII-13, N2-(4-aminosulfonyl)phenyl-N4-[(N-ethylsulfonyl)-1,2,3,4-tetrahydroisoquinolin-6-yl]-5-fluoro-2,4-pyrimidinediamine]

Second part, the compound before the results:

Compound: Cc1cc(Nc2nc(Nc3ccc(S(N)(=O)=O)cc3)ncc2F)cc(C)c1OC(C)C(N)=O (racemic) [Compound I-122, Racemic N4-[4-(1-Aminocarbonyl)ethoxy-3,5-dimethyl]phenyl-N2-(4-aminosulfonyl)phenyl-5-fluoro-2,4-pyrimidinediamine]
- IC50 [1, 3]: 292 nM
- IC50 [2]: 15700 nM

Compound: N#CCOc1ccc(Nc2nc(Nc3cccc(S(N)(=O)=O)c3)ncc2Br)cc1 [Compound I-13, N2-(3-Aminosulfonylphenyl)-5-bromo-N4-(4-cyanomethyleneoxyphenyl)-2,4-pyrimidinediamine]
- IC50 [1, 3]: 6.27 nM
- IC50 [2]: 43.5 nM

Compound: Cc1cc(COc2ccc(Nc3nc(Nc4ccc(C)c(S(N)(=O)=O)c4)ncc3F)cc2)n(C)n1 [Compound I-198, N2-(3-Aminosulfonyl-4-methylphenyl)-N4-[4-(1,3-dimethyl-(1H)-pyrazol-5-yl)methyleneoxyphenyl]-5-fluoro-2,4-pyrimidinediamine]
- IC50 [1, 3]: 102 nM
- IC50 [2]: 805 nM

Compound: N#CCOc1ccc(Nc2nc(Nc3cccc(S(N)(=O)=O)c3)ncc2F)cc1F [Compound I-12, N2-(3-Aminosulfonylphenyl)-5-fluoro-N4-(4-cyanomethyleneoxy-3-fluorophenyl)-2,4-pyrimidinediamine]
- IC50 [1, 3]: 36.9 nM
- IC50 [2]: 222 nM

Compound: N2-(3-Aminosulphonylphenyl)-5-fluoro-N4-[4-(3-pyridinylmethyl)benzo[1,4]oxazin-7-yl]-2,4-pyrimidinediamine [VII-55]
- IC50 [1, 4]: 184 nM
- IC50 [2]: 1670 nM

Compound: N2-(3-Aminosulfonyl-4-methylphenyl)-5-fluoro-N4-[4-(2-pyridinyl)-3-fluoromethyleneoxyphenyl]-2,4-pyrimidinediamine [Compound I-172]
- IC50 [1, 3]: 47.3 nM
- IC50 [2]: 1100 nM

Compound: Cc1ccc(Nc2ncc(F)c(Nc3ccc(OCC#N)c(F)c3)n2)cc1S(N)(=O)=O [Compound I-11, N2-(3-Aminosulfonyl-4-methylphenyl)-5-fluoro-N4-(4-cyanomethyleneoxy-3-fluorophenyl)-2,4-pyrimidinediamine]
- IC50 [1, 3]: 23.3 nM
- IC50 [2]: 329 nM

Compound: C[Si](C)(C)C#Cc1cnc(Nc2cccc(S(N)(=O)=O)c2)nc1Nc1ccc(OCC#N)cc1 [Compound I-15, N2-(3-Aminosulfonylphenyl)-N4-(4-cyanomethyleneoxyphenyl)-5-trimethylsilylacetylene-2,4-pyrimidinediamine]
- IC50 [1, 3]: 309 nM
- IC50 [2]: 4970 nM

Compound: CC(C)(Oc1ccc(Nc2nc(Nc3cccc(S(N)(=O)=O)c3)ncc2F)cc1)C(N)=O [Compound I-126, N4-[4-(1-Aminocarbonyl-1-methyl)ethoxy]phenyl-N2-(3-aminosulfonyl)phenyl-5-fluoro-2,4-pyrimidinediamine]
- IC50 [1, 3]: 355 nM
- IC50 [2]: 7200 nM

Compound: CCN(CC)CCNS(=O)(=O)c1ccc(Nc2ncc(F)c(Nc3ccc(OCc4cccnc4)cc3)n2)cc1 [Compound I-191, N2-[4-(2-N,N-Diethylaminoethyl)aminosulfonylphenyl)-5-fluoro-N4-[4-(3-pyridinyl)methyleneoxyphenyl]-2,4-pyrimidinediamine]
- IC50 [1, 3]: 135 nM
- IC50 [2]: 796 nM

Compound: Cc1cc(COc2ccc(Nc3nc(Nc4ccc(C)c(S(N)(=O)=O)c4)ncc3F)cc2)n(Cc2ccccc2)n1 [Compound I-199, N2-(3-Aminosulfonyl-4-methylphenyl)-N4-[4-(1-benzyl-3-methyl-(1H)-pyrazol-5-yl)methyleneoxyphenyl]-5-fluoro-2,4-pyrimidinediamine]
- IC50 [1, 3]: 240 nM
- IC50 [2]: 2690 nM

Compound: Cc1cc(Nc2nc(Nc3cccc(S(N)(=O)=O)c3)ncc2F)cc(C)c1OC(C)C(N)=O (racemic) [Compound I-123, Racemic N4-[4-(1-Aminocarbonyl)ethoxy-3,5-dimethyl]phenyl-N2-(3-aminosulfonyl)phenyl-5-fluoro-2,4-pyrimidinediamine]
- IC50 [1, 3]: 159 nM
- IC50 [2]: 2220 nM

Compound: Cc1ccc(Nc2ncc(F)c(Nc3ccc(OCc4ccncc4)cc3)n2)cc1S(N)(=O)=O [Compound I-194, N2-(3-Aminosulfonyl-4-methylphenyl)-5-fluoro-N4-[4-(4-pyridinyl)methyleneoxyphenyl]-2,4-pyrimidinediamine]
- IC50 [1, 3]: 28.6 nM

Compound: Cc1ccc(Nc2ncc(F)c(Nc3ccc(OCc4cccnc4)cc3)n2)cc1S(N)(=O)=O [Compound I-189, N2-(3-Aminosulfonyl-4-methylphenyl)-5-fluoro-N4-[4-(3-pyridinyl)methyleneoxyphenyl]-2,4-pyrimidinediamine]
- IC50 [1, 3]: 137 nM
- IC50 [2]: 508 nM

Compound: Cc1cc(Nc2nc(Nc3ccc(S(N)(=O)=O)cc3)ncc2F)ccc1OCC(N)=O [Compound I-113, N4-(4-Aminocarbonylmethoxy-3-methyl)phenyl-N2-(4-aminosulfonyl)phenyl-5-fluoro-2,4-pyrimidinediamine]
- IC50 [1, 3]: 165 nM
- IC50 [2]: 13500 nM

Compound: NS(=O)(=O)c1cccc(Nc2ncc(F)c(Nc3ccc(OCc4ccccn4)cc3)n2)c1 [Compound I-196, N2-(3-Aminosulfonylphenyl)-5-fluoro-N4-4-[(2-pyridinyl)methyleneoxyphenyl]-2,4-pyrimidinediamine Hydrochloride Salt]
- IC50 ([1]; Ramos B-cell line stimulated with IL-4, CD23 expression by FACS, Hydrochloride Salt): 124 nM
- IC50 [2]: 754 nM

Compound: CNS(=O)(=O)c1cc(Nc2ncc(C)c(Nc3ccc(OCc4ccccn4)cc3)n2)ccc1C [Compound I-180, 5-Methyl-N2-[3-(N-methylaminosulfony)-4-methylphenyl]-N4-[4-(2-pyridinyl)methyleneoxyphenyl]-2,4-pyrimidinediamine]
- IC50 [1, 3]: 62.4 nM
- IC50 [2]: 456 nM

Compound: N2-[3-Aminosulfonyl-4-(4-methylpiperazine-1-yl)phenyl]-N4-(3-cyanomethylene-1H-indol-6-yl)-5-fluoro-2,4-pyrimidinediamine [IX-17]
- IC50 [1, 4]: 108 nM
- IC50 [2]: 1980 nM
